Entries after “also recorded” stand apart in the source; their conditions may differ.
Legend:
SH-SY5Y cells = test: Mitochondrial ROS (Mito-SOX) in SH-SY5Y cells; assay type: cell-based
Experimental: Cells cultured on coverslips or 24-well plates were washed with DPBS and then incubated with 5 µM Mito-SOX™ Red (Invitrogen, M36008), a mitochondrial superoxide indicator, for 10 min at 37 °C. For cells cultured on coverslips, the images were visualized by microscope, and quantification of images was then carried out using NIH ImageJ software. At least 100 cells per group were counted in the analysis.
The bimolecular fluorescence was examined 24-hour after transfection (n = 3, one-way ANOVA with Tukey’s post-hoc test, scale bar = 30 μm). (D) Quantification of the concentration (ng/ml) of extracellular αSyn monomer and oligomer, and intracellular αSyn oligomer in Tet-inducible SH-SY5Y cells that were pre-treated with TAT or CS2 peptide 30-minute before adding doxycycline (Dox) to induce αSyn expression. The concentration of αSyn species was determined by ELISA (n = 4, one-way ANOVA with Tukey’s post-hoc test; data are mean ± SEM). (E) Representative images of Mito-SOX staining in SH-SY5Y cells that were pre-treated with TAT or CS2 peptide and transfected with split Venus-αSyn vectors. Mitochondrial ROS production was determined by Mito-SOX staining after 24-hour transfection (n = 4, two-tailed Student’s t test, scale bar = 30 μm).

ClpP–αSyn interaction = test: ClpP–αSyn co-immunoprecipitation in iPSC-derived neurons; assay type: cell-based, human; details: A53T-αSyn neurons; 1 µM, five days; n = 4
Excerpt: PD iPS cells lines (αSyn A53T, NN0004337, donor) and its isogenic corrected control line (NN0004344) were obtained from RUCDR Infinite Biologics. The iPS cells were differentiated into dopaminergic neuron-enriched neuronal culture with the protocol described previously. Briefly, iPS cell colonies were disassociated with accutase (Invitrogen), plated onto 6-well plates pre-coated with 2.5% Matrigel (BD Biosciences) and allowed to reach 80% confluence in mTeSR medium (Stem Cell Technology). For the first 10 days, cells were treated with SB431542 (10 µM; Tocris Bioscience) and Noggin (100 ng/ml) in Neural Media (NM) with FGF2 ([…]) and EGF ([…]). NM media contained: Neurobasal and DMEM/F12 (1:1), B-27 Supplement Minus Vitamin A (50×, Invitrogen), N2 Supplement (100X, Invitrogen), GlutaMAX (Invitrogen, 100×), 100 units/ml penicillin and 100 µg/ml streptomycin (Fisher); for the next 4 days, cells were treated with human recombinant Sonic hedgehog (SHH, 200 ng/ml) in neuronal differentiation medium. […]
Cells or tissues were lysed in total lysis buffer (50mM Tris-HCl, pH 7.5, 150mM NaCl, 1% Triton X-100, and protease inhibitor). […] The beads with immuno-precipitates were pulled down at 4000 g and washed four times with total lysis buffer/in vitro interaction buffer in the presence of 0.1% Triton X-100 and were analyzed by western blot analysis. […]

`CC(C)[C@H](NC(=O)CNC(=O)CNC(=O)CCCCCNC(=O)[C@H](CCCNC(=N)N)NC(=O)[C@H](CCCNC(=N)N)NC(=O)[C@H](CCCNC(=N)N)NC(=O)[C@H](CCC(N)=O)NC(=O)[C@H](CCCNC(=N)N)NC(=O)[C@H](CCCNC(=N)N)NC(=O)[C@H](CCCCN)NC(=O)[C@H](CCCCN)NC(=O)[C@H](CCCNC(=N)N)NC(=O)CNC(=O)[C@@H](N)Cc1ccc(O)cc1)C(=O)N[C@H](C(=O)N[C@H](C(=O)N[C@@H](C)C(=O)O)[C@@H](C)O)C(C)C` [CS2, TAT-C6-GGVVTA] was tested, and the “mitochondrial ROS, ClpP-deficient cells” value (SH-SY5Y cells; ClpPsh SH-SY5Y overexpressing αSyn, effect of reducing ROS, n = 13 areas/group) was “no protective effect; also recorded: not observed in ClpP-deficient cells”, the “mitochondrial ROS (Mito-SOX intensity)” value (SH-SY5Y cells; SH-SY5Y expressing VN/VC-αSyn (CS1: WT αSyn), Mito-SOX 5 µM, vs TAT) was “significant reduction of the fluorescence intensity of Mito-SOX” and the “ClpP–αSyn interaction by co-IP” value (ClpP–αSyn interaction) was “markedly reduced the ClpP–αSyn interaction”.

Source: article PMC12751141, “Disrupting α-Synuclein–ClpP interaction restores mitochondrial function and attenuates neuropathology in Parkinson’s disease models” (Molecular Neurodegeneration, 2025)
